# Key:
# [1] = test system: wheat; assay: Test C preemergence; format: in vivo, Triticum aestivum
# In short: (§1)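 Seeds were sown in a loam soil–sand blend and sprayed preemergence with compounds formulated in a non-phytotoxic solvent mixture containing surfactant. Postemergence plants, grown in peat/vermiculite medium to 2–18 cm (1- to 4-leaf stage), received the same formulation. After 13 to 15 days in a greenhouse, injury was rated visually against controls (0 = no effect, 100 = complete control).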
# [2] = test system: lambsquarters; assay: Test C preemergence; format: in vivo, Chenopodium album
# In short: as §1
# [3] = test system: oat, wild; assay: Test C postemergence; format: in vivo, Avena fatua; settings: for Plant response rating (scale of 0 to 100 where 0 is no effect and 100 is complete control), Oat, Wild: Postemergence, 31 g ai/ha, visually evaluated after 13 to 15 days; for Oat, Wild plant response rating / Plant response rating, Oat, Wild: postemergence; for Oat, Wild plant response rating: 62 g ai/ha, scale 0 to 100
# In short: as §1
# [4] = test system: pigweed; assay: Test C postemergence; format: in vivo, Amaranthus retroflexus; settings: postemergence; for Pigweed plant response rating: 62 g ai/ha, scale 0 to 100
# In short: as §1
# [5] = test system: nutsedge, yellow; assay: Test C preemergence; format: in vivo, Cyperus esculentus
# In short: as §1
# [6] = test system: foxtail, giant; assay: Test C postemergence; format: in vivo, Setaria faberii; settings: for Plant response rating (scale of 0 to 100 where 0 is no effect and 100 is complete control), Foxtail, Giant: Postemergence, 31 g ai/ha, visually evaluated after 13 to 15 days; for Foxtail, Giant plant response rating / Plant response rating, Foxtail, Giant: postemergence; for Foxtail, Giant plant response rating: 62 g ai/ha, scale 0 to 100
# In short: as §1
# [7] = test system: johnsongrass; assay: Test C postemergence; format: in vivo, Sorghum halepense; settings: for Plant response rating (scale of 0 to 100 where 0 is no effect and 100 is complete control), Johnsongrass: Postemergence, 31 g ai/ha, visually evaluated after 13 to 15 days; for Johnsongrass plant response rating / Plant response rating, Johnsongrass: postemergence; for Johnsongrass plant response rating: 62 g ai/ha, scale 0 to 100
# In short: as §1
# [8] = test system: barnyardgrass; assay: Test B flood; format: in vivo, Echinochloa crus-galli; settings: 250 g ai/ha, visual rating on 0 to 100 scale (0 no effect, 100 complete control), 13 to 15 days
# In short: (§2)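 Response scored visually, 0–100 relative to controls, 13–15 days after the compound was applied into paddy water; plants were at the 2-leaf stage in pots kept flooded to 3 cm.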
# [9] = test system: ryegrass, Italian; assay: Test C postemergence; format: in vivo, Lolium multiflorum; settings: postemergence
# In short: as §1
# [10] = test system: blackgrass; assay: Test C preemergence; format: in vivo, Alopecurus myosuroides; settings: preemergence; for Plant response rating, Blackgrass: 125 g ai/ha, scale 0 to 100, 0 = no effect, 100 = complete control
# In short: as §1
# [11] = test system: morningglory; assay: Test C postemergence; format: in vivo, Ipomoea coccinea; settings: for Plant response rating (scale of 0 to 100 where 0 is no effect and 100 is complete control), Morningglory: Postemergence, 31 g ai/ha, visually evaluated after 13 to 15 days; for Morningglory plant response rating / Plant response rating, Morningglory: postemergence; for Morningglory plant response rating: 62 g ai/ha, scale 0 to 100
# In short: as §1
# [12] = test system: rice; assay: Test B flood; format: in vivo, Oryza sativa; settings: 250 g ai/ha, visual rating on 0 to 100 scale (0 no effect, 100 complete control), 13 to 15 days
# In short: as §2
# [13] = test system: nutsedge, yellow; assay: Test C postemergence; format: in vivo, Cyperus esculentus; settings: for Plant response rating (scale of 0 to 100 where 0 is no effect and 100 is complete control), Nutsedge, Yellow: Postemergence, 31 g ai/ha, visually evaluated after 13 to 15 days; for Nutsedge, Yellow plant response rating / Plant response rating, Nutsedge, Yellow: postemergence; for Nutsedge, Yellow plant response rating: 62 g ai/ha, scale 0 to 100
# In short: as §1
# [14] = Preemergence, rate head not shown (block before 16 g ai/ha), scale 0 to 100
# [15] = preemergence, 62 g ai/ha, scale 0 to 100 (0 no effect, 100 complete control), 13 to 15 days
# [16] = preemergence, 125 g ai/ha, 13 to 15 days, scale 0 to 100, 0 = no effect, 100 = complete control
# [17] = preemergence, 250 g ai/ha, scale 0 to 100, 0 is no effect, 100 is complete control
# [18] = 250 g ai/ha, scale 0 to 100 (0 no effect, 100 complete control)
# [19] = 125 g ai/ha, scale 0 to 100, 0 no effect, 100 complete control
# [20] = 31 g ai/ha, visual rating, scale 0 to 100 (0 no effect, 100 complete control), 13 to 15 days
# [21] = 62 g ai/ha, scale 0 to 100 (0 no effect, 100 complete control), 13 to 15 days
# [22] = 250 g ai/ha, scale 0 to 100, 0 is no effect, 100 is complete control
# [23] = preemergence, 31 g ai/ha, visual rating, scale 0 to 100 (0 no effect, 100 complete control), 13 to 15 days
compound,measurement,setting,value
CCc1cc(C(=O)NC2CC2)nn1Cc1ccnc(Br)c1 [Compound 220],"Plant response rating, Wheat",[1]; [14],10
same,Wheat plant response rating,[1]; [15],0
same,"Plant response rating, Wheat",[1]; [16],15
same,Wheat plant response rating,[1]; [17],0
same,"Plant response rating, Lambsquarters",[2]; [14],60
same,Lambsquarters plant response rating,[2]; [15],98
same,"Plant response rating, Lambsquarters",[2]; [16],100
same,Lambsquarters plant response rating,[2]; [17],100
same,"Plant response rating (scale of 0 to 100 where 0 is no effect and 100 is complete control), Oat, Wild",[3],0
same,"Oat, Wild plant response rating",[3],5
same,"Plant response rating, Oat, Wild",[3]; [18],15
same,"Plant response rating, Oat, Wild",[3]; [19],10
same,Pigweed plant response rating,[4],25
same,"Plant response rating, Pigweed",[4]; [18],60
same,"Plant response rating, Pigweed",[4]; [19],40
same,"Plant response rating, Nutsedge, Yellow",[5]; [14],0
same,"Nutsedge, Yellow plant response rating",[5]; [15],0
same,"Plant response rating, Nutsedge, Yellow",[5]; [16],5
same,"Nutsedge, Yellow plant response rating",[5]; [17],5
same,"Plant response rating (scale of 0 to 100 where 0 is no effect and 100 is complete control), Foxtail, Giant",[6],0
same,"Foxtail, Giant plant response rating",[6],5
same,"Plant response rating, Foxtail, Giant",[6]; [18],5
same,"Plant response rating, Foxtail, Giant",[6]; [19],5
same,"Plant response rating (scale of 0 to 100 where 0 is no effect and 100 is complete control), Johnsongrass",[7],0
same,Johnsongrass plant response rating,[7],0
same,"Plant response rating, Johnsongrass",[7]; [18],25
same,"Plant response rating, Johnsongrass",[7]; [19],20
same,"Plant response rating, Barnyardgrass",[8],0
same,"Plant response rating, Ryegrass, Italian",[9]; [18],5
same,"Plant response rating, Ryegrass, Italian",[9]; [19],5
same,Blackgrass plant response rating,[10]; [20],0
same,Blackgrass plant response rating,[10]; [21],0
same,"Plant response rating, Blackgrass",[10]; 13 to 15 days,40
same,Blackgrass plant response rating,[10]; [22],70
same,"Plant response rating (scale of 0 to 100 where 0 is no effect and 100 is complete control), Morningglory",[11],10
same,Morningglory plant response rating,[11],55
same,"Plant response rating, Morningglory",[11]; [18],70
same,"Plant response rating, Morningglory",[11]; [19],40
same,"Plant response rating, Rice",[12],15
same,"Plant response rating (scale of 0 to 100 where 0 is no effect and 100 is complete control), Nutsedge, Yellow",[13],0
same,"Nutsedge, Yellow plant response rating",[13],0
same,"Plant response rating, Nutsedge, Yellow",[13]; [18],10
same,"Plant response rating, Nutsedge, Yellow",[13]; [19],40
CCCNC(=O)c1cc(CCF)n(Cc2ccnc(C(F)(F)F)c2)n1 [Compound 177],Wheat plant response rating,[1]; [23],10
same,Wheat plant response rating,[1]; [15],10
same,"Plant response rating, Wheat",[1]; [16],50
same,Wheat plant response rating,[1]; [17],90
same,Lambsquarters plant response rating,[2]; [23],85
same,Lambsquarters plant response rating,[2]; [15],98
same,"Plant response rating, Lambsquarters",[2]; [16],98
same,Lambsquarters plant response rating,[2]; [17],98
same,"Plant response rating (scale of 0 to 100 where 0 is no effect and 100 is complete control), Oat, Wild",[3],5
same,"Oat, Wild plant response rating",[3],5
same,"Plant response rating, Oat, Wild",[3]; [18],40
same,"Plant response rating, Oat, Wild",[3]; [19],15
same,Pigweed plant response rating,[4],40
same,"Plant response rating, Pigweed",[4]; [18],85
same,"Plant response rating, Pigweed",[4]; [19],75
same,"Nutsedge, Yellow plant response rating",[5]; [23],5
same,"Nutsedge, Yellow plant response rating",[5]; [15],60
same,"Plant response rating, Nutsedge, Yellow",[5]; [16],80
same,"Nutsedge, Yellow plant response rating",[5]; [17],95
same,"Plant response rating (scale of 0 to 100 where 0 is no effect and 100 is complete control), Foxtail, Giant",[6],5
same,"Foxtail, Giant plant response rating",[6],10
same,"Plant response rating, Foxtail, Giant",[6]; [18],45
same,"Plant response rating, Foxtail, Giant",[6]; [19],30
same,"Plant response rating (scale of 0 to 100 where 0 is no effect and 100 is complete control), Johnsongrass",[7],0
same,Johnsongrass plant response rating,[7],0
same,"Plant response rating, Johnsongrass",[7]; [18],5
same,"Plant response rating, Johnsongrass",[7]; [19],5
same,"Plant response rating, Barnyardgrass",[8],60
same,"Plant response rating, Ryegrass, Italian",[9]; [18],5
same,"Plant response rating, Ryegrass, Italian",[9]; [19],5
same,Blackgrass plant response rating,[10]; [20],50
same,Blackgrass plant response rating,[10]; [21],85
same,"Plant response rating, Blackgrass",[10]; 13 to 15 days,90
same,Blackgrass plant response rating,[10]; [22],90
same,"Plant response rating (scale of 0 to 100 where 0 is no effect and 100 is complete control), Morningglory",[11],60
same,Morningglory plant response rating,[11],40
same,"Plant response rating, Morningglory",[11]; [18],80
same,"Plant response rating, Morningglory",[11]; [19],85
same,"Plant response rating, Rice",[12],15
same,"Plant response rating (scale of 0 to 100 where 0 is no effect and 100 is complete control), Nutsedge, Yellow",[13],10
same,"Nutsedge, Yellow plant response rating",[13],5
same,"Plant response rating, Nutsedge, Yellow",[13]; [18],15
same,"Plant response rating, Nutsedge, Yellow",[13]; [19],5
CCc1cc(C(=O)NCC(F)(F)F)nn1Cc1ccnc(SC(F)(F)F)c1 [Compound 214],Wheat plant response rating,[1]; [23],0
same,Wheat plant response rating,[1]; [15],0
same,"Plant response rating, Wheat",[1]; [16],10
same,Wheat plant response rating,[1]; [17],40
same,Lambsquarters plant response rating,[2]; [23],100
same,Lambsquarters plant response rating,[2]; [15],100
same,"Plant response rating, Lambsquarters",[2]; [16],100
same,Lambsquarters plant response rating,[2]; [17],100
same,"Plant response rating (scale of 0 to 100 where 0 is no effect and 100 is complete control), Oat, Wild",[3],10
same,"Oat, Wild plant response rating",[3],15
same,"Plant response rating, Oat, Wild",[3]; [18],40
same,"Plant response rating, Oat, Wild",[3]; [19],15
same,Pigweed plant response rating,[4],60
same,"Plant response rating, Pigweed",[4]; [18],85
same,"Plant response rating, Pigweed",[4]; [19],75
same,"Nutsedge, Yellow plant response rating",[5]; [23],25
same,"Nutsedge, Yellow plant response rating",[5]; [15],55
same,"Plant response rating, Nutsedge, Yellow",[5]; [16],65
same,"Nutsedge, Yellow plant response rating",[5]; [17],65
same,"Plant response rating (scale of 0 to 100 where 0 is no effect and 100 is complete control), Foxtail, Giant",[6],5
same,"Foxtail, Giant plant response rating",[6],5
same,"Plant response rating, Foxtail, Giant",[6]; [18],20
same,"Plant response rating, Foxtail, Giant",[6]; [19],15
same,"Plant response rating (scale of 0 to 100 where 0 is no effect and 100 is complete control), Johnsongrass",[7],0
same,Johnsongrass plant response rating,[7],0
same,"Plant response rating, Johnsongrass",[7]; [18],5
same,"Plant response rating, Johnsongrass",[7]; [19],5
same,"Plant response rating, Barnyardgrass",[8],50
same,"Plant response rating, Ryegrass, Italian",[9]; [18],15
same,"Plant response rating, Ryegrass, Italian",[9]; [19],5
same,Blackgrass plant response rating,[10]; [20],85
same,Blackgrass plant response rating,[10]; [21],40
same,"Plant response rating, Blackgrass",[10]; 13 to 15 days,90
same,Blackgrass plant response rating,[10]; [22],90
same,"Plant response rating (scale of 0 to 100 where 0 is no effect and 100 is complete control), Morningglory",[11],75
same,Morningglory plant response rating,[11],95
same,"Plant response rating, Morningglory",[11]; [18],85
same,"Plant response rating, Morningglory",[11]; [19],85
same,"Plant response rating, Rice",[12],60
same,"Plant response rating (scale of 0 to 100 where 0 is no effect and 100 is complete control), Nutsedge, Yellow",[13],0
same,"Nutsedge, Yellow plant response rating",[13],10
same,"Plant response rating, Nutsedge, Yellow",[13]; [18],5
same,"Plant response rating, Nutsedge, Yellow",[13]; [19],5

# From US20150105252A1, “SUBSTITUTED PYRAZOLES AS HERBICIDES” (E I DU PONT DE NEMOURS AND COMPANY, priority 2013, published 2015)
